# In the supplement of paper PMC10307832:
# Key:
# Experiment in all cases: relative viability (nuclei count vs DMSO), 5 days (fraction); higher = more cells survive
# ABC-1 = test system: ABC-1
# Method in brief: (§1)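 Medians of duplicate plates are given as relative viability. That measure is the nuclei count in treated wells divided by the count in vehicle wells. Counts were taken on 4× images of lung cancer cell lines in 1536-well plates, 5 days after pin-tool dosing the day after seeding with one drug alone or a fixed anchor-drug dose plus five library-drug doses (not always all listed) in √10 steps.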
# NCI-H1651 = test system: NCI-H1651
# Method in brief: as §1
# NCI-H3122 = test system: NCI-H3122
# Method in brief: as §1
# ChaGo-K-1 = test system: ChaGo-K-1
# Method in brief: as §1
# HCC-78 = test system: HCC-78
# Method in brief: as §1
# NCI-H460 = test system: NCI-H460
# Method in brief: as §1
# NCI-H1395 = test system: NCI-H1395
# Method in brief: as §1
# NCI-H2087 = test system: NCI-H2087
# Method in brief: as §1
# PC-3 [JPC-3] = test system: PC-3 [JPC-3]
# Method in brief: as §1
# NCI-H2405 = test system: NCI-H2405
# Method in brief: as §1
# NCI-H1755 = test system: NCI-H1755
# Method in brief: as §1
# HCC-366 = test system: HCC-366
# Method in brief: as §1
# NCI-H1734 = test system: NCI-H1734
# Method in brief: as §1
# LOU-NH91 = test system: LOU-NH91
# Method in brief: as §1
# NCI-H1944 = test system: NCI-H1944
# Method in brief: as §1
# NCI-H2170 = test system: NCI-H2170
# Method in brief: as §1
# NCI-H1793 = test system: NCI-H1793
# Method in brief: as §1
# LC-2-ad = test system: LC-2-ad
# Method in brief: as §1
# LU99A = test system: LU99A
# Method in brief: as §1
# CAL-12T = test system: CAL-12T
# Method in brief: as §1
# RERF-LC-KJ = test system: RERF-LC-KJ
# Method in brief: as §1
# NCI-H2228 = test system: NCI-H2228
# Method in brief: as §1
# UMC-11 = test system: UMC-11
# Method in brief: as §1
compound,measurement,setting,value
Oc1nc(-c2ccc(C(F)(F)F)cc2)nc2c1CSCC2 [XAV939] + CS(=O)(=O)N1CCN(Cc2cc3nc(-c4cccc5[nH]ncc45)nc(N4CCOCC4)c3s2)CC1 [Pictilisib] (partner 1 µM),relative viability,ABC-1; first compound 0.08 µM,0.759
same,relative viability,ABC-1; first compound 0.253 µM,0.581
same,relative viability,ABC-1; first compound 0.8 µM,0.602
same,relative viability,ABC-1; first compound 2.53 µM,0.348
same,relative viability,NCI-H1651; first compound 0.08 µM,0.569
same,relative viability,NCI-H1651; first compound 0.253 µM,0.454
same,relative viability,NCI-H1651; first compound 0.8 µM,0.53
same,relative viability,NCI-H1651; first compound 2.53 µM,0.638
same,relative viability,NCI-H3122; first compound 0.08 µM,0.667
same,relative viability,NCI-H3122; first compound 0.253 µM,0.533
same,relative viability,NCI-H3122; first compound 0.8 µM,0.568
same,relative viability,NCI-H3122; first compound 2.53 µM,0.381
same,relative viability,ChaGo-K-1; first compound 0.08 µM,0.629
same,relative viability,ChaGo-K-1; first compound 0.253 µM,0.598
same,relative viability,ChaGo-K-1; first compound 0.8 µM,0.729
same,relative viability,ChaGo-K-1; first compound 2.53 µM,0.648
same,relative viability,HCC-78; first compound 0.08 µM,0.216
same,relative viability,HCC-78; first compound 0.253 µM,0.206
same,relative viability,HCC-78; first compound 0.8 µM,0.161
same,relative viability,HCC-78; first compound 2.53 µM,0.213
same,relative viability,NCI-H460; first compound 0.08 µM,0.362
same,relative viability,NCI-H460; first compound 0.253 µM,0.332
same,relative viability,NCI-H460; first compound 0.8 µM,0.284
same,relative viability,NCI-H460; first compound 2.53 µM,0.334
same,relative viability,NCI-H1395; first compound 0.08 µM,0.685
same,relative viability,NCI-H1395; first compound 0.253 µM,0.58
same,relative viability,NCI-H1395; first compound 0.8 µM,0.597
same,relative viability,NCI-H1395; first compound 2.53 µM,0.675
same,relative viability,NCI-H2087; first compound 0.08 µM,0.976
same,relative viability,NCI-H2087; first compound 0.253 µM,0.636
same,relative viability,NCI-H2087; first compound 0.8 µM,0.897
same,relative viability,NCI-H2087; first compound 2.53 µM,0.876
same,relative viability,PC-3 [JPC-3]; first compound 0.08 µM,0.681
same,relative viability,PC-3 [JPC-3]; first compound 0.253 µM,0.602
same,relative viability,PC-3 [JPC-3]; first compound 0.8 µM,0.663
same,relative viability,PC-3 [JPC-3]; first compound 2.53 µM,0.697
same,relative viability,NCI-H2405; first compound 0.08 µM,0.502
same,relative viability,NCI-H2405; first compound 0.253 µM,0.526
same,relative viability,NCI-H2405; first compound 0.8 µM,0.416
same,relative viability,NCI-H2405; first compound 2.53 µM,0.378
same,relative viability,NCI-H1755; first compound 0.08 µM,0.456
same,relative viability,NCI-H1755; first compound 0.253 µM,0.353
same,relative viability,NCI-H1755; first compound 0.8 µM,0.413
same,relative viability,NCI-H1755; first compound 2.53 µM,0.388
same,relative viability,HCC-366; first compound 0.08 µM,0.164
same,relative viability,HCC-366; first compound 0.253 µM,0.114
same,relative viability,HCC-366; first compound 0.8 µM,0.142
same,relative viability,HCC-366; first compound 2.53 µM,0.0889
same,relative viability,NCI-H1734; first compound 0.08 µM,0.488
same,relative viability,NCI-H1734; first compound 0.253 µM,0.418
same,relative viability,NCI-H1734; first compound 0.8 µM,0.371
same,relative viability,NCI-H1734; first compound 2.53 µM,0.383
same,relative viability,LOU-NH91; first compound 0.08 µM,0.498
same,relative viability,LOU-NH91; first compound 0.253 µM,0.471
same,relative viability,LOU-NH91; first compound 0.8 µM,0.509
same,relative viability,LOU-NH91; first compound 2.53 µM,0.504
same,relative viability,NCI-H1944; first compound 0.08 µM,0.37
same,relative viability,NCI-H1944; first compound 0.253 µM,0.197
same,relative viability,NCI-H1944; first compound 0.8 µM,0.348
same,relative viability,NCI-H1944; first compound 2.53 µM,0.287
same,relative viability,NCI-H2170; first compound 0.08 µM,0.298
same,relative viability,NCI-H2170; first compound 0.253 µM,0.277
same,relative viability,NCI-H2170; first compound 0.8 µM,0.269
same,relative viability,NCI-H2170; first compound 2.53 µM,0.26
same,relative viability,NCI-H1793; first compound 0.08 µM,0.344
same,relative viability,NCI-H1793; first compound 0.253 µM,0.308
same,relative viability,NCI-H1793; first compound 0.8 µM,0.308
same,relative viability,NCI-H1793; first compound 2.53 µM,0.363
same,relative viability,LC-2-ad; first compound 0.08 µM,0.5
same,relative viability,LC-2-ad; first compound 0.253 µM,1.13
same,relative viability,LC-2-ad; first compound 0.8 µM,0.407
same,relative viability,LC-2-ad; first compound 2.53 µM,0.428
same,relative viability,LU99A; first compound 0.08 µM,0.336
same,relative viability,LU99A; first compound 0.253 µM,0.279
same,relative viability,LU99A; first compound 0.8 µM,0.305
same,relative viability,LU99A; first compound 2.53 µM,0.293
same,relative viability,CAL-12T; first compound 0.08 µM,0.433
same,relative viability,CAL-12T; first compound 0.253 µM,0.33
same,relative viability,CAL-12T; first compound 0.8 µM,0.373
same,relative viability,CAL-12T; first compound 2.53 µM,0.34
same,relative viability,RERF-LC-KJ; first compound 0.08 µM,0.61
same,relative viability,RERF-LC-KJ; first compound 0.253 µM,0.457
same,relative viability,RERF-LC-KJ; first compound 0.8 µM,0.419
same,relative viability,RERF-LC-KJ; first compound 2.53 µM,0.366
same,relative viability,NCI-H2228; first compound 0.08 µM,0.247
same,relative viability,NCI-H2228; first compound 0.253 µM,0.304
same,relative viability,NCI-H2228; first compound 0.8 µM,0.253
same,relative viability,NCI-H2228; first compound 2.53 µM,0.382
same,relative viability,UMC-11; first compound 0.08 µM,0.733
same,relative viability,UMC-11; first compound 0.8 µM,0.752
same,relative viability,UMC-11; first compound 2.53 µM,0.712
